For data set [1], the system named is LPS-induced NO production in RAW264.7 cells. In words: LPS-induced NO production in RAW264.7 cells (Griess reaction). Format: cell-based. Conditions: RAW264.7 cells, LPS 2 µg/mL, supernatant after 24 h, read-out: IC50, inhibitory activity on LPS-induced NO production in RAW264.7 cells. The method, then: The inhibitory activities of compounds 1–16 on LPS stimulated macrophages was determined by Griess reaction. The NO content was detected by the NO kit according to the protocol described earlier ([23]). RAW264.7 cells obtained from the China Center for Cultivated Studies (Shanghai, China) were maintained in DMEM containing 10% FBS, and under 5% CO2 at 37°C. Briefly, the cells were seeded in a 96-well plate (1 × 10^5 cells/well), after 8 h of pre-incubation under 5% CO2 at 37°C, compounds 1–16 were added to the well plate, respectively, for 12 h. […] The supernatant of the cell culture were collected 24 h later.

The test system of a further data set is Hela (cervical) cells. In words: Cytotoxicity, SRB method, Hela. The format is cell-based, human. The procedure: (§1) Huh-7 (hepatoma), MCF-7 (human breast), KB (oral epithelial), Hela (cervical), H460 (lung), A-549 (lung), and HepG2 (hepatocellular) cancer cell lines (provided by Shanghai Cell Bank) were maintained in RPMI 1640 at 37 ℃, supplemented with 10% FBS. Cytotoxicity was determined by the SRB method, with 5-fluorouracil (5-FU) as a positive control. The IC50 value was calculated using the GraphPad prism program.

Data set [2] has as its system MCF-7 (human breast) cells. Description: Cytotoxicity, SRB method, MCF-7. The format is cell-based. The method, then:
as §1

Data set [3] relates to KB (oral epithelial) cells. In words: Cytotoxicity, SRB method, KB. Format: cell-based, human. The method, then: as §1
For data set [4], the system named is HepG2 (hepatocellular) cells. In words: Cytotoxicity, SRB method, HepG2. Format: cell-based, human. The procedure: as §1
The next data set deals with A-549 (lung) cells. Description: Cytotoxicity, SRB method, A549. Format: cell-based, human. The method, then:
as §1

For data set [5], the system named is Huh7, HepG2, KB, H460, Hela, A-549 and MCF-7 tumor cell lines. Description: Cytotoxicity, SRB method, statements on all seven tumor cell lines. The format is cell-based, human. As to conditions: for cytotoxicity on seven tumor cell lines (in words): Huh7, HepG2, KB, H460, Hela, A-549, MCF-7; for IC50: all seven cell lines, SRB method, footnote of Table S3, read-out: IC50, cytotoxicity against all cell lines tested. The procedure: The cytotoxicity of the separated compounds was assessed against seven tumor cell lines, Huh7, HepG2, KB, H460, Hela, A-549 and MCF-7 ([40], [41]).
as §1

The subject of a further data set is H460 (lung) cells. In words: Cytotoxicity, SRB method, H460. The format is cell-based, human. The method, then:
as §1

In a further data set the test system is Huh-7 (hepatoma) cells. Description: Cytotoxicity, SRB method, Huh-7. Format: cell-based, human. The procedure: as §1
Data set [6] in a line: Cytotoxicity, SRB method, Hela. As to conditions: human, Hela (cervical) cells. The format is cell-based, human. The procedure: as §1
Data set [7] is described as follows: Cytotoxicity, SRB method, H460. Format: cell-based, human. As to conditions: human, H460 (lung) cells. The procedure: as §1
The nature of data set [8]: Cytotoxicity, SRB method, MCF-7. Format: cell-based, human. As to conditions: human, MCF-7 (human breast) cells. The method, then: as §1
Data set [9] is described as follows: Cytotoxicity, SRB method, KB. The format is cell-based, human. Conditions: human, KB (oral epithelial) cells. The method, then: as §1
Data set [10] in a line: Cytotoxicity, SRB method, Huh-7. Format: cell-based, human. As to conditions: human, Huh-7 (hepatoma) cells. The method, then: as §1
Data set [11] in a line: Cytotoxicity, SRB method, HepG2. Format: cell-based, human. Conditions: human, HepG2 (hepatocellular) cells. The procedure: as §1
The nature of data set [12]: Cytotoxicity, SRB method, A549. The format is cell-based, human. Conditions: human, A-549 (lung) cells. The procedure:
as §1

The subject of another data set is xylene-induced ear edema. Description: Ear edema induced by xylene in mice. The format is in vivo. As to conditions: 200 mg/kg intragastric, 1 h before xylene, ears weighed 1 h after xylene. From the text:
Male ICR mice (18–20 g) were provided by the Laboratory Animal Center, Fujian Medical University. […] One hour after xylene treatment, the mice were sacrificed by cervical dislocation. […] The weight difference of two plugs was used to measure the edema response (Table S1). Animal care and use complied with institutional guidelines, and the program was affirmed by the Experimental Animal Management Committee of Fujian Medical University.

Read-outs that look alike come from different tables or passages of the source.

Regarding “3R, 23S, 24R, 25- tetraol- 7- glyoxiene [Compound 14]”, in [1], the IC50 was determined as 11.2 ± 1.12 µM.
As to 21β- methylmelianodiol [Compound 9], the IC50 is 60 ± 4.19 µM in the data set with Hela (cervical) cells; > 100 µM in [2]; 56.6 ± 8.3 µM in data set [3]; 44.3 ± 6 µM in data set [4]; 66 ± 10.1 µM with A-549 (lung) cells; 52.5 ± 8.98 µM in data set [1]. For the same compound, the “cytotoxicity on seven tumor cell lines (in words)” value (“cytotoxicity” for short) in data set [5] is given as “potent inhibitory activities”.
For “21β-methoxy-25-ene-bitrinonediol [Compound 7]”, the concentration for half-maximal inhibition (IC50) with Hela (cervical) cells is 58.4 ± 9.09 µM; in the data set with H460 (lung) cells, > 100 µM; in data set [2] it was > 100 µM; in data set [3] it was 40.9 ± 6.56 µM; with Huh-7 (hepatoma) cells, 94.7 ± 12.5 µM; in [4], > 100 µM. In addition, the IC50 (with A-549 (lung) cells; in [1]) was > 100 µM throughout. Besides, in [5], the “cytotoxicity” value was “moderate cytotoxicity”.
On to “24-hydroxyl-7, 25-dien-3-one [Compound 10]”, for which the half-maximal inhibitory concentration (IC50) in data set [5] was > 100 µM; in [1] it was 95.1 ± 9.4 µM.
As to `O=c1[nH]cc(F)c(=O)[nH]1` [5-Fluorouracil, 5-fluorouracil, reference compound], the IC50 in [6] stood at 2.31 ± 0.98 µM; in data set [7], 13.7 ± 2.85 µM; in data set [8], 23.4 ± 1.22 µM; in data set [9], 19.5 ± 1.24 µM; in data set [10], 36.2 ± 4.17 µM; in data set [11], 30.5 ± 1.54 µM. For the same compound, the midpoint of inhibition in data set [12], the IC50, lay at 36.2 ± 1.73 µM.
As for `CC(=O)Oc1ccccc1C(=O)O` [Aspirin], in the data set on xylene-induced ear edema, the “Edema Degree (±SD)” value was found to be 4.99 ± 0.30 mg and the “Inhibition Rate of ear edema” value came to 36.30%.
For `COC(=O)CC1C2(C)CC34OC5(C)OC6(C7CC(=O)OC(C8=CC(=O)OC8O)C7(C)CCC6(O5)C13C)C(OC(=O)C(C)C)C4(O)C2OC(=O)C(C)C` (stereo not shown) [Compound 1, Phragmalin A], the concentration for half-maximal inhibition (IC50) in data set [1] (Mus musculus) was 10.3 ± 0.39 µM.
Take `CCC(=O)OC1C2(O)C(OC(=O)CC(C)C)C3(C)CC24OC2(C)OC15C1CC(=O)OC(C6=CC(O)OC6=O)C1(C)CCC5(O2)C4(C)C3CC(=O)OC` (stereo not shown) [Compound 3, Chukrasin G]: the 50% inhibitory concentration (IC50) in [6] is > 100 µM; in [7], > 100 µM; in [8], > 100 µM; in data set [9] it was > 100 µM; in data set [10], > 100 µM; in data set [11] it was 99.4 ± 10.6 µM. Besides, the IC50 in data set [12] is > 100 µM; in data set [1] (Mus musculus) it was 10.5 ± 0.98 µM.
On to `COC(=O)CC1C2(C)CC34OC5(C)OC6(C7CC(=O)OC(C8=CC(O)OC8=O)C7(C)CCC6(O5)C13C)C(OC(=O)C(C)C)C4(O)C2OC(=O)C(C)C` (stereo not shown) [Compound 4, phragmalin, 22, 23-dihydro-23-hydroxy-21-oxo-3, 30-di-isobutyrates], for which the IC50 in data set [5] is > 100 µM; in [1], 21.9 ± 5.61 µM.
Consider `COC(=O)CC1C2(C)CC34OC5(C)OC6(C7CC(=O)OC(c8ccoc8)C7(C)CCC6(O5)C13C)C(OC(=O)C(C)C)C4(O)C2OC(=O)C(C)C` (stereo not shown) [Compound 5, phragmalin, 3, 30-di-isobutyrates], for which the IC50 in the data set on Hela (cervical) cells was > 100 µM; with H460 (lung) cells, > 100 µM; in data set [2], > 100 µM; in [3], > 100 µM; in the data set with Huh-7 (hepatoma) cells it was > 100 µM; in [4] it was 78 ± 12.7 µM. In addition, the IC50 in the data set on A-549 (lung) cells was > 100 µM; in data set [1], 35.6 ± 7.23 µM.
As for `CC(C)(O)C1OCC(C2CCC3(C)C4=CCC5C(C)(C)C(=O)CCC5(C)C4CCC23C)CC1O` (stereo not shown) [Compound 6, bourjotinolone A], the IC50 is 29.3 ± 7.11 µM in the data set on Hela (cervical) cells; > 100 µM in data set [2]; 29.6 ± 7.69 µM in the data set on Huh-7 (hepatoma) cells; 59.3 ± 4.67 µM in data set [4]; 43.6 ± 10.6 µM in the data set on A-549 (lung) cells; 35.6 ± 4.29 µM in data set [1]. Moreover, in data set [5], the “cytotoxicity” value is on record as “potent inhibitory activities”.
For the compound `C=C(C)C(O)C(O)CC(C)C1CCC2(C)C3=CCC4C(C)(C)C(=O)CCC4(C)C3CCC12C` (stereo not shown) [Compound 8, (13a, 14b, 17a, 20S, 23R, 24R)-23, 24-dihydro-xylanosta-7, 25-dien-3-one], the IC50 in data set [5] is > 100 µM; in data set [1], 46.1 ± 6.11 µM.
`CC(C)(O)[C@@H](O)[C@H]1C[C@@H]([C@@H]2CC[C@]3(C)C4=CC[C@H]5C(C)(C)C(=O)CC[C@]5(C)[C@H]4CC[C@@]23C)[C@H](O)O1` [Compound 11, melianodiol]: the concentration for half-maximal inhibition (IC50) worked out at 86.3 ± 9.28 µM with Hela (cervical) cells; 73.2 ± 10.5 µM in the data set with H460 (lung) cells; 52.6 ± 7.2 µM in data set [2]; 63.5 ± 8.25 µM in data set [3]; 79.8 ± 9.24 µM with Huh-7 (hepatoma) cells; 80 ± 5.26 µM in [4]. Moreover, the IC50 with A-549 (lung) cells came to 45.1 ± 6.33 µM; in [1] it was 13.3 ± 2.67 µM. The “cytotoxicity” value in data set [5] is reported as “potent inhibitory activities”.
Consider `CO[C@@H]1O[C@@H]([C@H](O)C(C)(C)OC)C[C@H]1[C@@H]1CC[C@]2(C)C3=CC[C@H]4C(C)(C)C(=O)CC[C@]4(C)[C@H]3CC[C@@]12C` [Compound 12, 21α, 25-dimethyl-melianodiol], for which the IC50 in [1] came to 13.9 ± 5.33 µM.
For the compound `CO[C@H]1O[C@@H]([C@H](O)C(C)(C)OC)C[C@H]1[C@@H]1CC[C@]2(C)C3=CC[C@H]4C(C)(C)C(=O)CC[C@]4(C)[C@H]3CC[C@@]12C` [Compound 13, 21β, 25-dimethylmelianodiol], in data set [1], the IC50 stood at 24.9 ± 4.6 µM.
For the compound `C[C@@H](C[C@@H](O)[C@H](O)C(C)(C)O)[C@@H]1CC[C@]2(C)C3=CC[C@H]4C(C)(C)C(=O)CC[C@]4(C)[C@H]3CC[C@@]12C` [Compound 15, piscidinol A], the IC50 in data set [1] was 33.6 ± 4.77 µM.
For the compound `CC1(C)OC[C@H]([C@@H]2CC[C@]3(C)C4=CC[C@H]5C(C)(C)C(=O)CC[C@]5(C)[C@H]4CC[C@@]23C)C[C@@H](O)[C@@H]1O` [Compound 16, hispidone], in data set [1], the concentration for half-maximal inhibition (IC50) is > 100 µM.
Turning to `COc1ccc2c(c1)c(CC(=O)O)c(C)n2C(=O)c1ccc(Cl)cc1` [Indomethacin, reference compound], the half-maximal inhibitory concentration (IC50) in data set [1] (Mus musculus) came out at 26.2 ± 1.56 µM.

These data come from PMC10392864, “Chukrasia tabularis limonoid plays anti-inflammatory role by regulating NF-κB signaling pathway in lipopolysaccharide-induced macrophages” (Food & Nutrition Research, 2023).
